Measured values as given in US6703380B2, “Prevention of cancer” (Colotech A/S, priority 1999, dated 2004).
Values joined by “and” are separate entries in the source; they are usually repeats but may differ in a detail not shown here. Equal values may be shown once.

Tests used:
solid, human xenografts = conditions: in vivo (mice); cited from earlier work
[1] = test system: human colon cancer cell lines (LoVo); conditions: in vitro, including CEA-producing cell lines; cited from earlier work
[2] = test system: stroke, acute myocardial infarction and/or cardiovascular death; conditions: low-dose; cited from earlier work
[3] = test system: aberrant crypt foci (ACF) of the colon/rectum in AOM-induced rats; assay: ACF of the colon/rectum in AOM-induced rats, Example 2; type: in vivo, rat
Protocol: The in vivo study of the effect on prevention of CRC in AOM (Azoxymethane) induced rats The rats are induced s.c 1× week in 2 weeks with an AOM solution. The effect of the specific treatment is evaluated due to the number of aberrant crypt foci (ACF) of the colon/rectum in the AOM-induced rats. The aberrant crypt score is evaluated by stereomicroscopy (40×) upon staining with Giemsa-solution (6 ml conc. Giemsa in 50 ml of PBS, pH 7.1). The crypt size is categorised as small, medium, large and X-large. The number of animals is 80 with 16 in each group. The medicaments are administered with the food. The section is 18 weeks from the first dosage. […] Data for weight, food and water are registered and analysed “Small” in the third column is the sum of small and medium of the first column “Large” in the third column is the sum of large and x-large the of second column

[4] = following 3 months of therapy; cited from earlier work
[5] = count per animal, listed as Asp 200

SMILES: C=C1/C(=C\C=C2/CCC[C@]3(C)[C@@H]([C@H](C)CCCC(C)(C)O)CC[C@@H]23)C[C@@H](O)C[C@@H]1O [1,25DHC, 1,25 dihydroxycholecalciferol]
- Growth of solid, human xenografts (solid, human xenografts): suppress growth
- Growth of human colon cancer cell lines [1]: inhibits the growth

SMILES: CC(=O)Oc1ccccc1C(=O)O [ASA, acetylsalicylic acid]
- Relative risk-reduction in relation to stroke, acute myocardial infarction and/or cardiovascular death [2]: approx. 25%
- Effect on (large) ACF, in words ([3]; aspirin 200 ppm without or with Ca and 1,25 DHC): without effect
- Small ACF, individual rat ([3]; count per animal, section 18 weeks from first dosage, listed as Asp 200): 92 and 87 and 20 and 51 and 31 and 82 and 73 (2×) and 44 (2×) and 55 and 47 and 40 and 22 and 46 and 63
- Large (sum of large and x-large) ACF, individual rat [3, 5]: 15 and 9 and 2 (3×) and 8 and 5 (2×) and 3 (3×) and 6 and 1 (2×) and 7 and 4
- Large ACF, individual rat [3, 5]: 13 and 8 and 2 (3×) and 5 (4×) and 3 (3×) and 1 (2×) and 6 and 4
- Medium ACF, individual rat [3, 5]: 74 and 45 and 8 and 34 and 10 and 51 and 35 and 31 and 22 and 49 and 21 and 9 and 26 and 47 and 18 and 50
- Small (sum of small and medium) ACF, individual rat [3, 5]: 166 and 132 and 28 and 85 and 41 and 133 and 108 and 75 and 77 and 96 and 61 and 31 and 72 and 120 and 62 and 113
- Total ACF, individual rat [3, 5]: 181 and 141 and 30 and 93 and 43 and 138 and 111 and 78 and 80 and 102 and 62 and 33 and 79 and 125 and 66 and 114
- X-Large ACF, individual rat [3, 5]: 2 and 1 (3×) and 0 (11×) and 3
- Large (sum of large and x-large) ACF, Mean ([3]; group mean): 4.75
- Large ACF, Mean ([3]; group mean): 4.25
- Medium ACF, Mean ([3]; group mean): 33.13
- Small (sum of small and medium) ACF, Mean ([3]; group mean): 87.50
- Small ACF, Mean ([3]; group mean): 54.38
- Total ACF, Mean ([3]; group mean): 92.25
- X-Large ACF, Mean ([3]; group mean): 0.50

SMILES: O=C(O)c1cc(/N=N/c2ccc(S(=O)(=O)Nc3ccccn3)cc2)ccc1O [sulphasalazine]
- Relative risk reduction [4]: 0.38 (0.2 to 0.7)
